In patent publication US20220009914A1, “Analogs of Nitrofuran Antibiotics to Combat Resistance” (The Trustees of Indiana University, priority 2020, published 2022) one finds IC50 data, which are given here for 18 compounds.

One test deals with T1, E. coli GroEL/ES (Escherichia coli, UniProt P0A6F5).
T1 construct: made in house; host or cells: GroEL in NEB 5-alpha E. coli; GroES in E. coli BL21 (DE3)
In words: GroEL/ES-mediated dRho refolding assay. The class given is biochemical. How it is done: Evaluating compounds for inhibition in the GroEL/ES-mediated dRho refolding assay. Reagent preparation: For this assay, five primary reagent stocks were prepared: 1) GroEL/ES-dRho binary complex stock; 2) ATP initiation stock; 3) thiocyanate enzymatic assay stock; 4) formaldehyde quench stock; 5) ferric nitrate reporter stock. Denatured rhodanese (dRho) was prepared by 3-fold dilution of rhodanese (Roche product #R^1756, diluted to 10 mg/mL with H2O) with denaturant buffer (12 M Urea, 50 mM Tris-HCl, pH 7.4, and 10 mM DTT). Rhodanese was completely denatured by incubating at room temperature for >45 min. The binary complex solution was prepared by slowly adding the dRho stock to a stirring stock of concentrated GroEL in modified folding buffer (50 mM Tris-HCl, pH 7.4, 50 mM KCl, 10 mM MgCl2, 5 mM Na2S2O3, and 1 mM DTT). The solution was centrifuged at 16,000×g for 5 minutes, and the supernatant was collected and added to a solution of GroES in modified folding buffer to give final protein concentrations of 100 nM GroEL, 120 nM GroES, and 80 nM dRho. The binary complex stock was prepared immediately prior to use. For the ATP initiation stock, ATP solid was diluted into modified folding buffer to a final concentration of 2.0 mM. The thiocyanate enzymatic assay stock was prepared to contain 70 mM KH2PO4, 80 mM KCN, and 80 mM Na2S2O3 in water. The formaldehyde quench solution contained 30% formaldehyde in water.
Assay Protocol: First, 10 μL aliquots of the GroEL/ES-dRho complex stock were dispensed into clear, flat-bottom 384-well polystyrene plates. […] After incubating for 40 minutes at 37° C. for the refolding cycle, 30 μL of the thiocyanate enzymatic assay stock was added and incubated for 60 min at room temperature for the refolded rhodanese enzymatic reporter reaction. The reporter reaction was quenched by adding 10 μL of the formaldehyde quench stock, and then 40 μL of the ferric nitrate reporter stock was added to quantify the amount of thiocyanate produced during the enzymatic reporter reaction, which is proportional to the amount of dRho refolded by GroEL/ES. After incubating at room temperature for 15 min, the absorbance by Fe(SCN)3 was measured at 460 nm using a Molecular Devices SpectraMax Plus384 microplate reader. A second set of baseline control plates were prepared analogously, but without GroEL/ES-dRho protein binary solution, to correct for possible interference from compound absorbance or turbidity. […] Results presented represent the averages of IC50 values obtained from at least four replicates.
Evaluating compounds for inhibition in the GroEL/ES-mediated dRho refolding assay. All compounds were evaluated for inhibiting E. coli GroEL/ES-mediated refolding of the denatured Rho reporter enzyme as per our previously reported procedure. Results presented represent the averages of IC50 values obtained from at least four replicates.

The next test addresses T2, native MDH (Sus scrofa, UniProt P00346).
T2 sequence (P00346 25-338): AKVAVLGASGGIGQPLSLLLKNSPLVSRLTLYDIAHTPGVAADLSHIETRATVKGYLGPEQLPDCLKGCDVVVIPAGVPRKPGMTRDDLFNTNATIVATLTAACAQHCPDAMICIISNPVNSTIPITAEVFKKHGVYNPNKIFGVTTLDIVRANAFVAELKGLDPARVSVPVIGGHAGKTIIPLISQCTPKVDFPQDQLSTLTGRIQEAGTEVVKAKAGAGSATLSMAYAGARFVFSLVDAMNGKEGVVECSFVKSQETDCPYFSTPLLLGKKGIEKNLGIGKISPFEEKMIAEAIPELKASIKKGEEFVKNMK
Description: native MDH enzymatic activity counter-screen. It counts as biochemical, pig. How it is done:
Reagent Preparations & Assay Protocol: This assay was performed as described above for the GroEL/ES-dMDH refolding assay; however, the assay protocol differed in the sequence of compound addition to the assay plates. The refolding reactions were allowed to proceed for 45 min at 37° C. in the absence of test compounds (complete refolding of MDH occurs), then quenched with the EDTA stock. Compounds were then pin-transferred into the plates after the EDTA quenching step; thus, compound effects are only possible by inhibiting the fully-refolded MDH reporter substrate. […] A340 nm measurements were recorded at 0.5 minutes (start point) and at successive time points until the amount of NADH consumed reached ˜90% (end point, generally between 20-35 minutes). Compounds were tested in 8-point, 3-fold dilution series (62.5 μM to 29 nM during the reporter reaction) in clear, flat-bottom 384-well microtiter plates. IC50 values for the MDH reporter enzyme were determined as described above. Results presented represent the averages of IC50 values obtained from at least five replicates.
Evaluating analogs for inhibiting GroEL/ES-mediated substrate refolding functions. […] We first evaluated all test compounds in our standard GroEL/ES-mediated refolding assays that employ either malate dehydrogenase (MDH) or rhodanese (Rho) as the denatured substrate reporter enzymes. When denatured, these enzymes are efficiently folded by GroEL/ES in the absence of inhibitors, and thus act as reporters to determine the degree of inhibition against the bacterial chaperonin system. Inhibition was examined in the presence of these two orthogonal substrates in order to support that GroEL/ES inhibitors were on-target. To further support on-target effects against GroEL/ES, we counter-screened for inhibition of the native MDH and Rho enzymatic reporter reactions, where test compounds were added after the denatured MDH and Rho substrate enzymes were completely refolded by GroEL/ES.

[1] abbreviates: without NfsB nitroreductase, compounds added after refolding, read-out: Native MDH Activity IC50.

Where two headings read alike, the source gives them in different places.

T1 sequence (P0A6F5 2-548): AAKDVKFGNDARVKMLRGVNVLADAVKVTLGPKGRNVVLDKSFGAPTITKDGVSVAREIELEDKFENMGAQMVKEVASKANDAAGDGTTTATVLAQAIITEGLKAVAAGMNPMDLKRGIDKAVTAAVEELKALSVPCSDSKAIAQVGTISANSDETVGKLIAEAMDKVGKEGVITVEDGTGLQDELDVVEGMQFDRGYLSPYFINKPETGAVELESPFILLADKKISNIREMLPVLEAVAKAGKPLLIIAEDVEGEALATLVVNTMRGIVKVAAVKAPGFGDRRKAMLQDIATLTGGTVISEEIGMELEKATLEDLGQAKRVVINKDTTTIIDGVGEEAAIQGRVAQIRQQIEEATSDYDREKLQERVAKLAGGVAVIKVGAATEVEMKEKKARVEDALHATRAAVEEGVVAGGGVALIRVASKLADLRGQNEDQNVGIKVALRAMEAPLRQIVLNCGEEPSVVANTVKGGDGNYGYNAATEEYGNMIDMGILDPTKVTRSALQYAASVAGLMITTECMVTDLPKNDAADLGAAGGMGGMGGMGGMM

For the compound `O=C(N/N=C/c1ccc(O)c2ncccc12)c1ccc(Cl)s1` [Compound 4, 5-chloro-N′-((8-hydroxyquinolin-5-yl)methylene)thiophene-2-carbohydrazide], the IC50 on E. coli GroEL/ES is 1.4 µM; on native MDH (setting [1]) it was greater than 63 µM.
On to `O=C(N/N=C/c1ccc([N+](=O)[O-])o1)c1ccc(O)cc1` [Nifuroxazide, reference compound], for which the results for the IC50 against E. coli GroEL/ES and against native MDH were 133 µM and greater than 63 µM, respectively.
For the compound `O=C(N/N=C/c1ccc(O)c2ncccc12)c1ccncc1` [Compound 6, N′-((8-hydroxyquinolin-5-yl)methylene)isonicotinohydrazide], the IC50 is greater than 250 µM against E. coli GroEL/ES and greater than 63 µM at native MDH (setting [1]).
Consider `O=C(N/N=C/c1ccc(O)c2ncccc12)c1cccc(Oc2ccccc2)c1` [Compound 11, N′-((8-hydroxyquinolin-5-yl)methylene)-3-phenoxybenzohydrazide], for which the figures for the IC50 against E. coli GroEL/ES and at native MDH (setting [1]) were 7.8 µM and greater than 63 µM, respectively.
On to `COc1ccc(C(=O)N/N=C/c2ccc(O)c3ccccc23)cc1` [Compound 29, N′-((4-hydroxynaphthalen-1-yl)methylene)-4-methoxybenzohydrazide], for which the IC50 on E. coli GroEL/ES is 117 µM; at native MDH (setting [1]), greater than 63 µM.
The like results for `O=C(N/N=C/c1ccc(O)c2ncccc12)c1cccc2ccccc12` [Compound 9, N′-((8-hydroxyquinolin-5-yl)methylene)-1-naphthohydrazide] were, in that order, 2.1 µM and greater than 63 µM.
The like results for `COc1ccc(C(=O)N/N=C/c2ccco2)cc1` [Compound 39, N′-(furan-2-ylmethylene)-4-methoxybenzohydrazide] were, in that order, greater than 250 µM and greater than 63 µM.
The like results for `CN(C)c1ccc(C(=O)N/N=C/c2ccc(O)c3ncccc23)cc1` [Compound 8, 4-(dimethylamino)-N′-((8-hydroxyquinolin-5-yl)methylene)benzohydrazide] were, in that order, 7.9 µM and greater than 63 µM.
Turning to `O=C(N/N=C/c1ccccc1)c1ccccc1` [Compound 38, N′-benzylidenebenzohydrazide], the IC50 against E. coli GroEL/ES was greater than 250 µM; on native MDH (setting [1]) it was greater than 63 µM.
The like results for `O=C(N/N=C/c1ccc(O)c2ncccc12)c1cccs1` [Compound 3, N′-((8-hydroxyquinolin-5-yl)methylene)thiophene-2-carbohydrazide] were, in that order, 38 µM and greater than 63 µM.
Take `CCOc1ccc(S(=O)(=O)Nc2ccc(C(=O)N/N=C/c3ccc([N+](=O)[O-])o3)cc2)cc1` [Compound 28, 4-ethoxy-N-(4-(2-((5-nitrofuran-2-yl)methylene)hydrazine-1-carbonyl)phenyl)benzenesulfonamide]: the IC50 is 66 µM against E. coli GroEL/ES and greater than 63 µM on native MDH (setting [1]).
Take `O=C(N/N=C/c1ccc([N+](=O)[O-])o1)c1cccc(Oc2ccccc2)c1` [Compound 24, N′-((5-nitrofuran-2-yl)methylene)-3-phenoxybenzohydrazide]: the concentration for half-maximal inhibition (IC50) against E. coli GroEL/ES was 50 µM; at native MDH (setting [1]), greater than 63 µM.
The like results for `O=C(N/N=C/c1ccc(O)c2ncccc12)c1ccc(NS(=O)(=O)c2ccc(Br)cc2)cc1` [Compound 14, 4-bromo-N-(4-(2-((8-hydroxyquinolin-5-yl)methylene)hydrazine-1-carbonyl)phenyl)benzenesulfonamide] were, in that order, 1.8 µM and greater than 63 µM.
As for `COc1ccc(C(=O)N/N=C/c2ccccc2)cc1` [Compound 37, N′-benzylidene-4-methoxybenzohydrazide], the 50% inhibitory concentration (IC50) is greater than 250 µM on E. coli GroEL/ES and greater than 63 µM at native MDH (setting [1]).
The like results for `O=C(N/N=C/c1cccc2ccccc12)c1ccccc1` [Compound 34, N′-(naphthalen-1-ylmethylene)benzohydrazide] were, in that order, 209 µM and greater than 63 µM.
As to `O=C(N/N=C/c1ccc([N+](=O)[O-])o1)c1ccc(NS(=O)(=O)c2ccc(Br)cc2)cc1` [Compound 27, 4-bromo-N-(4-(2-((5-nitrofuran-2-yl)methylene)hydrazine-1-carbonyl)phenyl)benzenesulfonamide], the values for the IC50 against E. coli GroEL/ES and against native MDH were 59 µM and greater than 63 µM, respectively.
Regarding `CCN(CC)S(=O)(=O)c1cccc(C(=O)N/N=C/c2ccc(O)c3ncccc23)c1` [Compound 12, N,N-diethyl-3-(2-((8-hydroxyquinolin-5-yl)methylene)hydrazine-1-carbonyl)benzenesulfonamide], the IC50 was 10 µM against E. coli GroEL/ES and greater than 63 µM at native MDH (setting [1]).
The like results for `O=Cc1ccc([N+](=O)[O-])o1` [Compound 41, reference compound] were, in that order, 31 µM and greater than 63 µM.
